Tests used:
Assay type in all cases: in vivo
[1] = system: corn (Zea mays); assay: Test A preemergence soil spray, visual injury rating 0-100; settings: 10 days; for Corn plant response rating (0 to 100 scale): 125 g ai/ha
Description: (§1) Seeds of plant species selected from barnyardgrass (Echinochloa crus-galli), blackgrass (Alopecurus myosuroides), corn (Zea mays), foxtail, giant (giant foxtail, Setaria faberi), green foxtail (Setaria viridis), goosegrass (Eleusine indica), kochia (Bassia scoparia), oat, wild (wild oat, Avena fatua), palmer (palmer amaranth, palmer pigweed, Amaranthus palmeri), ragweed (common ragweed, Ambrosia artemisiifolia), ryegrass, Italian (italian ryegrass, Lolium multiflorum), soybean (Glycine max) and wheat (Triticum aestivum) were planted into a blend of loam soil and sand and treated preemergence with a directed soil spray using test chemicals formulated in a non-phytotoxic solvent mixture which included a surfactant.
(§2) At the same time, plants selected from these crops and weed species and also galium (catchweed bedstraw, Galium aparine) and horseweed (Erigeron canadensis) were planted in pots containing the same blend of loam soil and sand and treated with postemergence applications of test chemicals formulated in the same manner. Plants ranged in height from 2 to 10 cm and were in the one- to two-leaf stage for the postemergence treatment. Treated plants and untreated controls were maintained in a greenhouse for 10 days, after which time all treated plants were compared to untreated controls and visually evaluated for injury. Plant response ratings, summarized in Table A, are based on a 0 to 100 scale where 0 is no effect and 100 is complete control. A dash (-) response means no test result.

[2] = system: palmer (palmer amaranth, palmer pigweed, Amaranthus palmeri); assay: as above; settings: 10 days; for Amaranth, Palmer plant response rating (0 to 100 scale): 125 g ai/ha
Description: as §1, §2

[3] = system: soybean (Glycine max); assay: as above; settings: 10 days; for Soybean plant response rating (0 to 100 scale): 125 g ai/ha
Description: as §1, §2

[4] = system: kochia (Bassia scoparia); assay: as above; settings: 10 days; for Kochia plant response rating (0 to 100 scale): 125 g ai/ha
Description: as §1, §2

[5] = system: barnyardgrass (Echinochloa crus-galli); assay: as above; settings: 10 days; for Barnyardgrass plant response rating (0 to 100 scale): 125 g ai/ha
Description: as §1, §2

[6] = system: ragweed (common ragweed, Ambrosia artemisiifolia); assay: as above; settings: 10 days; for Ragweed plant response rating (0 to 100 scale): 125 g ai/ha
Description: as §1, §2

[7] = system: blackgrass (Alopecurus myosuroides); assay: as above; settings: 10 days; for Blackgrass plant response rating (0 to 100 scale): 125 g ai/ha
Description: as §1, §2

[8] = system: ryegrass, Italian (italian ryegrass, Lolium multiflorum); assay: as above; settings: 10 days; for Ryegrass, Italian plant response rating (0 to 100 scale): 125 g ai/ha
Description: as §1, §2

[9] = system: oat, wild (wild oat, Avena fatua); assay: as above; settings: 10 days; for Oat, Wild plant response rating (0 to 100 scale): 125 g ai/ha
Description: as §1, §2

[10] = system: wheat (Triticum aestivum); assay: as above; settings: 10 days; for Wheat plant response rating (0 to 100 scale): 125 g ai/ha
Description: as §1, §2

[11] = system: corn (Zea mays); assay: Test A postemergence application, visual injury rating 0-100; settings: Postemergence
Description: as §1, §2

[12] = system: palmer (palmer amaranth, palmer pigweed, Amaranthus palmeri); assay: as above; settings: Postemergence
Description: as §1, §2

[13] = system: soybean (Glycine max); assay: as above; settings: Postemergence
Description: as §1, §2

[14] = system: kochia (Bassia scoparia); assay: as above; settings: Postemergence
Description: as §1, §2

[15] = system: barnyardgrass (Echinochloa crus-galli); assay: as above; settings: Postemergence
Description: as §1, §2

[16] = system: ragweed (common ragweed, Ambrosia artemisiifolia); assay: as above; settings: Postemergence
Description: as §1, §2

[17] = system: blackgrass (Alopecurus myosuroides); assay: as above; settings: Postemergence
Description: as §1, §2

[18] = system: ryegrass, Italian (italian ryegrass, Lolium multiflorum); assay: as above; settings: Postemergence
Description: as §1, §2

[19] = system: oat, wild (wild oat, Avena fatua); assay: as above; settings: Postemergence
Description: as §1, §2

[20] = system: wheat (Triticum aestivum); assay: as above; settings: Postemergence
Description: as §1, §2

[21] = system: horseweed (Erigeron canadensis); assay: as above; settings: Postemergence
Description: as §1, §2

[22] = system: galium (catchweed bedstraw, Galium aparine); assay: as above; settings: Postemergence
Description: as §1, §2

[23] = 31 g ai/ha, 0 = no effect, 100 = complete control
[24] = 0 = no effect, 100 = complete control
[25] = 31 g ai/ha, greenhouse 10 days, 0 no effect, 100 complete control
[26] = 125 g ai/ha, 10 days, 0 is no effect, 100 is complete control

CC1(C(=O)NC2C=CC(C(=O)NS(=O)(=O)C(C)(C)C)C2)CN(c2cc(F)cc(F)c2)C(=O)O1 (stereo not shown) [Compound 80]
50: Amaranth, Palmer plant response rating (0 to 100 scale) [2, 24] | Wheat plant response rating (0 to 100 scale) [10, 24] | Amaranth, Palmer / Pigweed, Palmer plant response rating (0 to 100 scale) [12, 25]
100: Corn plant response rating (0 to 100 scale) [11, 26]
70: Kochia plant response rating (0 to 100 scale) [4, 24] | Amaranth, Palmer / Pigweed, Palmer plant response rating (0 to 100 scale) [12, 26] | Soybean plant response rating (0 to 100 scale) [13, 25] | Kochia plant response rating (0 to 100 scale) [14, 25] | Blackgrass plant response rating (0 to 100 scale) [17, 26] | Ryegrass, Italian plant response rating (0 to 100 scale) [18, 25] | Horseweed plant response rating (0 to 100 scale) [21, 26]
40: Barnyardgrass plant response rating (0 to 100 scale) [5, 24] | Ragweed plant response rating (0 to 100 scale) [16, 26]
60: Ryegrass, Italian plant response rating (0 to 100 scale) [8, 24] | Wheat plant response rating (0 to 100 scale) [20, 25]
30: Blackgrass plant response rating (0 to 100 scale) [7, 24] | Oat, Wild plant response rating (0 to 100 scale) [9, 24] | Corn plant response rating (0 to 100 scale) [11, 25] | Blackgrass plant response rating (0 to 100 scale) [17, 25]
80: Soybean plant response rating (0 to 100 scale) [13, 26] | Kochia plant response rating (0 to 100 scale) [14, 26] | Barnyardgrass plant response rating (0 to 100 scale) [15, 25] | Ryegrass, Italian plant response rating (0 to 100 scale) [18, 26] | Galium plant response rating (0 to 100 scale) [22, 25] | Galium plant response rating (0 to 100 scale) [22, 26]
10: Soybean plant response rating (0 to 100 scale) [3, 24] | Ragweed plant response rating (0-100) [6, 23] | Horseweed plant response rating (0 to 100 scale) [21, 25]
90: Barnyardgrass plant response rating (0 to 100 scale) [15, 26] | Oat, Wild plant response rating (0 to 100 scale) [19, 25] | Oat, Wild plant response rating (0 to 100 scale) [19, 26] | Wheat plant response rating (0 to 100 scale) [20, 26]
0: Corn plant response rating (0-100) [1, 23] | Corn plant response rating (0 to 100 scale) [1, 24] | Amaranth, Palmer plant response rating (0-100) [2, 23] | Soybean plant response rating (0-100) [3, 23] | Kochia plant response rating (0-100) [4, 23] | Barnyardgrass plant response rating (0-100) [5, 23] | Ragweed plant response rating (0 to 100 scale) [6, 24] | Blackgrass plant response rating (0-100) [7, 23] | Ryegrass, Italian plant response rating (0-100) [8, 23] | Oat, Wild plant response rating (0-100) [9, 23] | Wheat plant response rating (0-100) [10, 23] | Ragweed plant response rating (0 to 100 scale) [16, 25]

CCS(=O)(=O)NC(=O)C1C=CC(NC(=O)C2(C)CN(c3cc(F)cc(F)c3)C(=O)O2)C1 (stereo not shown) [Compound 81]
0: Corn plant response rating ([1]; 31 g ai/ha, 0 to 100 scale) | Blackgrass plant response rating (0 to 100 scale) [17, 25]
20: Ragweed plant response rating ([6]; 31 g ai/ha, 0 to 100 scale) | Ragweed plant response rating (0 to 100 scale) [16, 25]
70: Soybean plant response rating (0 to 100 scale) [3, 24] | Kochia plant response rating ([4]; 31 g ai/ha, 0 to 100 scale) | Blackgrass plant response rating (0 to 100 scale) [7, 24] | Oat, Wild plant response rating (0 to 100 scale) [9, 24] | Amaranth, Palmer / Pigweed, Palmer plant response rating (0 to 100 scale) [12, 25] | Amaranth, Palmer / Pigweed, Palmer plant response rating (0 to 100 scale) [12, 26] | Ryegrass, Italian plant response rating (0 to 100 scale) [18, 26] | Horseweed plant response rating (0 to 100 scale) [21, 26]
10: Soybean plant response rating ([3]; 31 g ai/ha, 0 to 100 scale) | Ragweed plant response rating (0 to 100 scale) [6, 24]
80: Corn plant response rating (0 to 100 scale) [1, 24] | Ryegrass, Italian plant response rating (0 to 100 scale) [8, 24] | Kochia plant response rating (0 to 100 scale) [14, 25] | Oat, Wild plant response rating (0 to 100 scale) [19, 25] | Galium plant response rating (0 to 100 scale) [22, 25] | Galium plant response rating (0 to 100 scale) [22, 26]
100: Corn plant response rating (0 to 100 scale) [11, 26]
50: Amaranth, Palmer (Pigweed, Palmer) plant response rating ([2]; 31 g ai/ha, 0 to 100 scale) | Soybean plant response rating (0 to 100 scale) [13, 26] | Ragweed plant response rating (0 to 100 scale) [16, 26] | Blackgrass plant response rating (0 to 100 scale) [17, 26] | Ryegrass, Italian plant response rating (0 to 100 scale) [18, 25]
30: Blackgrass plant response rating ([7]; 31 g ai/ha, 0 to 100 scale) | Soybean plant response rating (0 to 100 scale) [13, 25] | Horseweed plant response rating (0 to 100 scale) [21, 25]
40: Oat, Wild plant response rating ([9]; 31 g ai/ha, 0 to 100 scale) | Wheat plant response rating ([10]; 31 g ai/ha, 0 to 100 scale)
60: Ryegrass, Italian plant response rating ([8]; 31 g ai/ha, 0 to 100 scale) | Corn plant response rating (0 to 100 scale) [11, 25]
90: Amaranth, Palmer plant response rating (0 to 100 scale) [2, 24] | Kochia plant response rating (0 to 100 scale) [4, 24] | Barnyardgrass plant response rating ([5]; 31 g ai/ha, 0 to 100 scale) | Barnyardgrass plant response rating (0 to 100 scale) [5, 24] | Wheat plant response rating (0 to 100 scale) [10, 24] | Kochia plant response rating (0 to 100 scale) [14, 26] | Barnyardgrass plant response rating (0 to 100 scale) [15, 25] | Barnyardgrass plant response rating (0 to 100 scale) [15, 26] | Oat, Wild plant response rating (0 to 100 scale) [19, 26] | Wheat plant response rating (0 to 100 scale) [20, 25] | Wheat plant response rating (0 to 100 scale) [20, 26]

From patent US20260285850A1, “SUBSTITUTED OXAZOLIDINONES AND IMIDAZOLINONES AS HERBICIDES” (FMC CORPORATION, priority 2023, published 2026)
